Where two headings read alike, the source gives them in different places.
Tests used:
[1] = molecular target: Beta Secretase enzyme (BACE1) (Homo sapiens, UniProt P56817); assay: In vitro enzymatic BACE FRET assay; assay type: biochemical; conditions: read-out: BACE1 FRET assay IC50
Protocol: In Vitro Enzymatic BACE FRET (Fluorescence Resonance Energy Transfer) Assay (Enzyme Assay Data in the Example Tables I and II)
The assay buffer used in this screen is 0.05 M acetate, pH 4.2, 10% DMSO final, 100 uM genapol (which is a nonionic detergent, below its Critical Micelle Concentration). […] This assay is effectively started by the addition of FRET substrate (50 nM) and the combination is incubated for one hour. The FRET assay is terminated with by addition of Tris buffer, which raises the pH to neutrality, and the fluorescence is determined. The FRET substrate is a peptide with commercially available fluorophore and quencher, on opposite sides of the BACE cleavage site. Proteolytic cleavage of the FRET substrate releases quenching of fluorescence (excitation […] and […]).

[2] = molecular target: T1, Cathepsin D (Cat D) (Homo sapiens, UniProt P07339); assay: In vitro enzymatic Cathepsin D (Cat D) FRET assay; assay type: biochemical; conditions: read-out: CatD IC50
T1 construct: Recombinant Cat D was expressed in CHO cells; made in house; host or cells: CHO cells
Protocol: In Vitro Enzymatic Cathepsin D (Cat D) FRET (Fluorescence Resonance Energy Transfer) Assay Recombinant Cat D was expressed in CHO cells. […] The Cat D enzyme (9 nM) is pre-incubated for one hour with inhibitors, typically in about 1 uL of DMSO according to a serial dilution, is added thereto. […] The FRET assay is terminated with by addition of Tris buffer, which raises the pH to neutrality, and the fluorescence is determined. The FRET substrate is a peptide with commercially available fluorophore and quencher, on opposite sides of the BACE cleavage site. The Cat D substrate peptide sequence is based on sequence #1 of Table 1 from Gulnik et al. […] Alternatively, a Cat D assay may also be run according to the procedure described in the article, Characterization of new fluorgenic substrates for the rapid and sensitive assay of cathepsin E and cathepsin D, J. Biochem., 125:1137, 1999. In addition, the cathepsin D and cathepsin E assays are described in PCT publication WO2011069934. This WIPO publication describes BACE inhibitor compounds having an amide linker connecting two aromatic groups with extremely poor cathepsin D and/or cathepsin E inhibitory activity (see Table 2). Where available, the in-vitro Cat D FRET assay data for each of the Examples, conducted by the first procedure, is provided.

[3] = tested on: Aβ40 in conditioned medium of cells stably expressing Amyloid Precursor Protein (APP); assay: In vitro BACE cell-based assay (HEK cell assay), Aβ40 sandwich ELISA; conditions: Homo sapiens, HEK293
Protocol: In Vitro BACE Cell-Based Assay
The cell-based assay measures inhibition or reduction of Aβ40 in conditioned medium of test compound treated cells expressing amyloid precursor protein.
Cells stably expressing Amyloid Precursor Protein (APP) were plated at a density of 40K cells/well in 96 well plates (Costar). The cells were cultivated for 24 hours at 37C. and 5% CO2 in DMEM supplemented with 10% FBS. The test compounds were then added to cells in 10-point dose response concentrations with the starting concentration being either 100 μM or 10 μM. The compounds were diluted from stock solutions in DMSO and the final DMSO concentration of the test compounds on cells was 0.1%. After 24 h of incubation with the test compounds the supernatant conditioned media was collected and the Aβ 40 levels were determined using a sandwich ELISA. The IC50 of the compound was calculated from the percent of control or percent inhibition of Aβ 40 as a function of the concentration of the test compound.
The sandwich ELISA to detect Aβ 40 was performed in 96 well microtiter plates, which were pre-treated with goat anti-rabbit IgG (Pierce). The capture and detecting antibody pair that were used to detect Aβ 40 from cell supernatants were affinity purified pAb40 (Biosource) and biotinylated 6E10 (Signet Labs Inc.), respectively. The optimal concentration for the pAb40 antibody was 3 μg/ml in Superblock/TBS (Pierce) that was supplemented with 0.05% Tween 20 (Sigma). Optimal concentration for the detection antibody 6E10-biotinylated was 0.5 μg/ml in Superblock/TBS (Pierce) that had been supplemented with 2% normal goat serum and 2% normal mouse serum.
Cellular supernatants were incubated with the capture antibody for 3 h at 4° C., followed by 3 wash steps in TBS-tween (0.05%). The detecting antibody incubation was for 2 h at 4° C., again followed by the wash steps as described previously. The final readout of the ELISA is Time-Resolved Fluorescence (counts per minute) using Delfia reagents Streptavidin-Europium and Enhancement solutions (Perkin Elmer) and the Victor 2 multilabel counter (Perkin Elmer).

T1 sequence (P07339 65-412, species assumed): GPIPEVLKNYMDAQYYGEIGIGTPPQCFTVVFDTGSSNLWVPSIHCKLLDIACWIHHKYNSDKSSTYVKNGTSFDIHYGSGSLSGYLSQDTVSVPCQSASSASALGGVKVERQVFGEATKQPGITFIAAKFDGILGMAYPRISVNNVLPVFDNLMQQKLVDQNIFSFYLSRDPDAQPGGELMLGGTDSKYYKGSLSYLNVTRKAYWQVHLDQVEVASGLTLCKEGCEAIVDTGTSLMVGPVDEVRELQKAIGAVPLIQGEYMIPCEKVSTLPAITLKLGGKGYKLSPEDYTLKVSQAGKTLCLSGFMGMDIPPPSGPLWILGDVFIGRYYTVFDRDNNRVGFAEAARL
Sequence of Beta Secretase enzyme (BACE1) (P56817 46-501): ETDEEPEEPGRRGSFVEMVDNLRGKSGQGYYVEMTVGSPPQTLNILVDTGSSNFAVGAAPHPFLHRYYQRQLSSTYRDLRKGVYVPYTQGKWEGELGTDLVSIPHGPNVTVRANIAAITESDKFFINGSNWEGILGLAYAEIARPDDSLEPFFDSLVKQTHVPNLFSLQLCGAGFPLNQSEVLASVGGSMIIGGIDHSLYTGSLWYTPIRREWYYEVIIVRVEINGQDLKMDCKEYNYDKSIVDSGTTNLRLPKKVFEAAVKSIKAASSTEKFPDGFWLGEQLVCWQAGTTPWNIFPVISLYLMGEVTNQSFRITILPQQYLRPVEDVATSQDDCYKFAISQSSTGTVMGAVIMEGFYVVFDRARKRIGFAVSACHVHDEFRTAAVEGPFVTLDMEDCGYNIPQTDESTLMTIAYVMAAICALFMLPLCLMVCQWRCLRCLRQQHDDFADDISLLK

| Structure (SMILES) | IC50 [2] [nM] | IC50 ([1]; average IC50, enzyme assay) [nM] | IC50 ([1]; average IC50) [nM] | IC50 ([3]; average IC50, HEK cells) [nM] | IC50 [1] [nM] | IC50 ([3]; Aβ40, 24 h incubation) [nM] |
| --- | --- | --- | --- | --- | --- | --- |
| C[C@@]1(c2cc(Br)ccc2F)CS(=O)(=O)C2(CCOC2)C(N)=N1 (mixture of isomers) [Example 181, (8R)-10-Amino-8-(5-bromo-2-fluorophenyl)-8-methyl-2-oxa-6-thia-9-azaspiro[4.5]dec-9-ene 6,6-dioxide] | 43300 |  | 16300 | > 15600 |  |  |
| CC1(C)C(N)=N[C@](C)(c2cc(NC(=O)c3ccc(F)cn3)ccc2F)CS1(=O)=O [Example 18, N-(3-((3R)-5-amino-3,6,6-trimethyl-1,1-dioxido-3,6-dihydro-2H-1,4-thiazin-3-yl)-4-fluorophenyl)-5-fluoro-2-pyridinecarboxamide] | > 400000 |  |  |  | 1.9 | 3.7 |
| CC1(C)C(N)=N[C@](C)(c2cc(NC(=O)c3cnc(C(F)(F)F)cn3)ccc2F)CS1(=O)=O [Example 21, N-(3-((3R)-5-amino-3,6,6-trimethyl-1,1-dioxido-3,6-dihydro-2H-1,4-thiazin-3-yl)-4-fluorophenyl)-5-(trifluoromethyl)-2-pyrazinecarboxamide] | > 400000 |  |  |  | 7.4 | 11 |
| COc1ccc(C(=O)Nc2ccc(F)c([C@]3(C)CS(=O)(=O)C(C)(C)C(N)=N3)c2)nc1 [Example 22, N-(3-((3R)-5-amino-3,6,6-trimethyl-1,1-dioxido-3,6-dihydro-2H-1,4-thiazin-3-yl)-4-fluorophenyl)-5-methoxy-2-pyridinecarboxamide] | > 400000 |  |  |  | 1.5 | 3.1 |
| CC1(C)C(N)=N[C@](C)(c2cc(NC(=O)c3ccc(C#N)cn3)ccc2F)CS1(=O)=O [Example 23, N-(3-((3R)-5-amino-3,6,6-trimethyl-1,1-dioxido-3,6-dihydro-2H-1,4-thiazin-3-yl)-4-fluorophenyl)-5-cyano-2-pyridinecarboxamide] | 617000 |  |  |  | 2.7 | 2.7 |
| CC1(C)C(N)=N[C@](C)(c2cc(NC(=O)c3ncc(Cl)cc3F)ccc2F)CS1(=O)=O [Example 24, N-(3-((3R)-5-amino-3,6,6-trimethyl-1,1-dioxido-3,6-dihydro-2H-1,4-thiazin-3-yl)-4-fluorophenyl)-5-chloro-3-fluoro-2-pyridinecarboxamide] | > 400000 |  |  |  | 0.6 | 3.7 |
| CC#CCOc1cnc(C(=O)Nc2ccc(F)c([C@]3(C)CS(=O)(=O)C(C)(C)C(N)=N3)c2)cn1 [Example 26, N-(3-((3R)-5-amino-3,6,6-trimethyl-1,1-dioxido-3,6-dihydro-2H-1,4-thiazin-3-yl)-4-fluorophenyl)-5-(2-butyn-1-yloxy)-2-pyrazinecarboxamide] | 475000 |  |  |  | 0.4 | 0.05 |
| Cc1nc(C(=O)Nc2ccc(F)c([C@]3(C)CS(=O)(=O)C(C)(C)C(N)=N3)c2)cs1 [Example 27, N-(3-((3R)-5-amino-3,6,6-trimethyl-1,1-dioxido-3,6-dihydro-2H-1,4-thiazin-3-yl)-4-fluorophenyl)-2-methyl-1,3-thiazole-4-carboxamide] | > 400000 |  |  |  | 51 | 60.9 |
| COc1cnc(C(=O)Nc2ccc(F)c([C@]3(C)CS(=O)(=O)CC(N)=N3)c2)cn1 [Example 28, N-(3-((3R)-5-amino-3-methyl-1,1-dioxido-3,6-dihydro-2H-1,4-thiazin-3-yl)-4-fluorophenyl)-5-methoxy-2-pyrazinecarboxamide] | 50900 |  |  |  | 14.9 | 68 |
| COc1ccnc(Oc2ccc(F)c([C@]3(C)CS(=O)(=O)C(C)(C)C(N)=N3)c2)c1 [Example 287, (5R)-5-(2-fluoro-5-((4-methoxy-2-pyridinyl)oxy)phenyl)-2,2,5-trimethyl-5,6-dihydro-2H-1,4-thiazin-3-amine 1,1-dioxide] | 204000 | 100 |  |  |  |  |
| CC1(C)C(N)=N[C@](C)(c2cc(Oc3ncccn3)ccc2F)CS1(=O)=O [Example 288, (5R)-5-(2-fluoro-5-(2-pyrimidinyloxy)phenyl)-2,2,5-trimethyl-5,6-dihydro-2H-1,4-thiazin-3-amine 1,1-dioxide] | 222000 | 125 |  |  |  |  |

Further lines, with some results ahead:

| IC50 [2] [nM] | IC50 ([1]; average IC50, enzyme assay) [nM] | Structure (SMILES) | IC50 ([1]; average IC50) [nM] | IC50 ([3]; average IC50, HEK cells) [nM] | IC50 [1] [nM] | IC50 ([3]; Aβ40, 24 h incubation) [nM] |
| --- | --- | --- | --- | --- | --- | --- |
| 63600 |  | C[C@@]1(c2cc(Nc3nccc4cc(Cl)cnc34)ccc2F)CS(=O)(=O)C2(CCOC2)C(N)=N1 (mixture of isomers) [Example 182, (8R)-10-amino-8-(5-((3-chloro-1,7-naphthyridin-8-yl)amino)-2-fluorophenyl)-8-methyl-2-oxa-6-thia-9-azaspiro[4.5]dec-9-ene 6,6-dioxide] | 2.2 | 30.6 |  |  |
| 164000 |  | CC1(C)C(N)=N[C@](C)(c2cc(Nc3nccc4cc(Cl)cnc34)cc(F)c2F)CS1(=O)=O (single isomer, unassigned) [Example 70] |  |  | 830 | 5040 |
| 193000 |  | CC1(C)C(N)=N[C@](C)(c2cc(NC(=O)c3ccc(C(F)F)cn3)ccc2F)CS1(=O)=O [Example 20, N-(3-((3R)-5-amino-3,6,6-trimethyl-1,1-dioxido-3,6-dihydro-2H-1,4-thiazin-3-yl)-4-fluorophenyl)-5-(difluoromethyl)-2-pyridinecarboxamide] |  |  | 2.7 | 3.9 |
| 263000 |  | Cc1cc(Cl)cnc1C(=O)Nc1ccc(F)c([C@]2(C)CS(=O)(=O)C(C)(C)C(N)=N2)c1 [Example 25, N-(3-((3R)-5-amino-3,6,6-trimethyl-1,1-dioxido-3,6-dihydro-2H-1,4-thiazin-3-yl)-4-fluorophenyl)-5-chloro-3-methyl-2-pyridinecarboxamide] |  |  | 0.3 | 3.2 |
| 118000 |  | C[C@@]1(c2cc(NC(=O)c3ccc(Cl)cn3)ccc2F)CS(=O)(=O)CC(N)=N1 [Example 29, N-(3-((3R)-5-amino-3-methyl-1,1-dioxido-3,6-dihydro-2H-1,4-thiazin-3-yl)-4-fluorophenyl)-5-chloro-2-pyridinecarboxamide] |  |  | 6 | 10.8 |
| 80700 | 1.01 | CC1(C)C(N)=N[C@](C)(c2cc(Nc3ncnc4cc(C#N)cnc34)ccc2F)C(F)S1(=O)=O (stereo partly drawn) [Example 229, 4-((3-((3R)-5-amino-2-fluoro-3,6,6-trimethyl-1,1-dioxido-3,6-dihydro-2H-1,4-thiazin-3-yl)-4-fluorophenyl)amino)pyrido[3,2-d]pyrimidine-7-carbonitrile] |  |  |  |  |
| 528000 | 3530 | NC1=N[C@@](CF)(c2cc(Nc3nccc4cc(Cl)cnc34)ccc2F)CS(=O)(=O)C12CCC2 [Example 244, N-(3-((7R)-9-amino-7-(fluoromethyl)-5,5-dioxido-5-thia-8-azaspiro[3.5]non-8-en-7-yl)-4-fluorophenyl)-3-chloro-1,7-naphthyridin-8-amine] |  |  |  |  |
| 680000 | 2070 | COc1cnc2c(Oc3ccc(F)c([C@]4(C)CS(=O)(=O)C(C)(C)C(N)=N4)c3)nccc2c1 [Example 305, (5R)-5-(2-fluoro-5-((3-methoxy-1,7-naphthyridin-8-yl)oxy)phenyl)-2,2,5-trimethyl-5,6-dihydro-2H-1,4-thiazin-3-amine 1,1-dioxide] |  |  |  |  |
